Data from the kinase profiling compilation of Christmann-Franck et al. (2016).

Columns and labels:
Test in all cases: KINOMEscan competition binding
Conditions in all cases: compound 10.0 µM
[1] = target: TSSK1B (human) (UniProt Q9BXA7)
[2] = target: TAOK1 (human) (UniProt Q7L7X3)
[3] = target: CHEK2 (human) (UniProt O96017)
[4] = target: DYRK1B (human) (UniProt Q9Y463)
[5] = target: PIK3CB (human) (UniProt P42338)
[6] = target: YES1 (human) (UniProt P07947)
[7] = target: MAPK10 (human) (UniProt P53779)
[8] = target: PIK3C2B (human) (UniProt O00750)
[9] = target: TXK (human) (UniProt P42681)
[10] = target: MAP4K4 (human) (UniProt O95819)
MAP4K4 (human), sequence (O95819 whole entry, looked up): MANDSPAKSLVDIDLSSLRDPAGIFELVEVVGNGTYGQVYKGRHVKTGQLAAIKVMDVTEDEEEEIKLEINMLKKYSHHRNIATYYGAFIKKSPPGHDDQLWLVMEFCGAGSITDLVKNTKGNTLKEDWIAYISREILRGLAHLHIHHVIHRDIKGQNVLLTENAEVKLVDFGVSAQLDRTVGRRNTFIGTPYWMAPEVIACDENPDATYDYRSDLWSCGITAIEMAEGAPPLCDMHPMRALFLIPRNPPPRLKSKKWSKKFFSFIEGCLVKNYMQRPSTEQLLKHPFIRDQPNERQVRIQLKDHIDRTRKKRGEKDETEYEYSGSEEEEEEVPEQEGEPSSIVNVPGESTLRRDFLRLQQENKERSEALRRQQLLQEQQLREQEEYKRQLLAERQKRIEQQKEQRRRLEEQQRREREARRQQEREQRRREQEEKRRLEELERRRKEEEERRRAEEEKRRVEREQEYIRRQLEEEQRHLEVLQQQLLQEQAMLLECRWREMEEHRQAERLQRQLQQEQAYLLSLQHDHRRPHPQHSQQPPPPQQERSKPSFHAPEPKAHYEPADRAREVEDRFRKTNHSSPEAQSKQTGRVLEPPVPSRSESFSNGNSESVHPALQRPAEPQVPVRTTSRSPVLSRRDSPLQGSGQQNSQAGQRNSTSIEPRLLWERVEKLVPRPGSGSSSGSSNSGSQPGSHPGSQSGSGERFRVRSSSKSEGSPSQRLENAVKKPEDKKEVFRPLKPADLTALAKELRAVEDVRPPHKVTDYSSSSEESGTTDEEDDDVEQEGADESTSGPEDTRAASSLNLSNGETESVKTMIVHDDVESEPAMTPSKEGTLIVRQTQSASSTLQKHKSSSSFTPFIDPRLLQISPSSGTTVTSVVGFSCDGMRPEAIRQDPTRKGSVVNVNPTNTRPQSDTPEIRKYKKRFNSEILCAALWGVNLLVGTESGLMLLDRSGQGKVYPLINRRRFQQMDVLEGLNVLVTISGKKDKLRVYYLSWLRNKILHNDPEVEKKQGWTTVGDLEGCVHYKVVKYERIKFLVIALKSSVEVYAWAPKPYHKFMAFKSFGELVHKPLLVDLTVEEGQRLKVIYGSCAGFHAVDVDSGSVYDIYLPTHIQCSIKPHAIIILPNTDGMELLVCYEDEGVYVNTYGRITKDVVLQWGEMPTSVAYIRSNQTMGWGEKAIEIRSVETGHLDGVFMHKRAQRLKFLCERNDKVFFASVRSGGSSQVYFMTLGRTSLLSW

[11] = target: MAPK13 (human) (UniProt O15264)
[12] = target: IGF1R (human) (UniProt P08069)
[13] = target: SRPK3 (human) (UniProt Q9UPE1)
[14] = target: ALK (human) (UniProt Q9UM73)
ALK (human), sequence (Q9UM73 whole entry, looked up): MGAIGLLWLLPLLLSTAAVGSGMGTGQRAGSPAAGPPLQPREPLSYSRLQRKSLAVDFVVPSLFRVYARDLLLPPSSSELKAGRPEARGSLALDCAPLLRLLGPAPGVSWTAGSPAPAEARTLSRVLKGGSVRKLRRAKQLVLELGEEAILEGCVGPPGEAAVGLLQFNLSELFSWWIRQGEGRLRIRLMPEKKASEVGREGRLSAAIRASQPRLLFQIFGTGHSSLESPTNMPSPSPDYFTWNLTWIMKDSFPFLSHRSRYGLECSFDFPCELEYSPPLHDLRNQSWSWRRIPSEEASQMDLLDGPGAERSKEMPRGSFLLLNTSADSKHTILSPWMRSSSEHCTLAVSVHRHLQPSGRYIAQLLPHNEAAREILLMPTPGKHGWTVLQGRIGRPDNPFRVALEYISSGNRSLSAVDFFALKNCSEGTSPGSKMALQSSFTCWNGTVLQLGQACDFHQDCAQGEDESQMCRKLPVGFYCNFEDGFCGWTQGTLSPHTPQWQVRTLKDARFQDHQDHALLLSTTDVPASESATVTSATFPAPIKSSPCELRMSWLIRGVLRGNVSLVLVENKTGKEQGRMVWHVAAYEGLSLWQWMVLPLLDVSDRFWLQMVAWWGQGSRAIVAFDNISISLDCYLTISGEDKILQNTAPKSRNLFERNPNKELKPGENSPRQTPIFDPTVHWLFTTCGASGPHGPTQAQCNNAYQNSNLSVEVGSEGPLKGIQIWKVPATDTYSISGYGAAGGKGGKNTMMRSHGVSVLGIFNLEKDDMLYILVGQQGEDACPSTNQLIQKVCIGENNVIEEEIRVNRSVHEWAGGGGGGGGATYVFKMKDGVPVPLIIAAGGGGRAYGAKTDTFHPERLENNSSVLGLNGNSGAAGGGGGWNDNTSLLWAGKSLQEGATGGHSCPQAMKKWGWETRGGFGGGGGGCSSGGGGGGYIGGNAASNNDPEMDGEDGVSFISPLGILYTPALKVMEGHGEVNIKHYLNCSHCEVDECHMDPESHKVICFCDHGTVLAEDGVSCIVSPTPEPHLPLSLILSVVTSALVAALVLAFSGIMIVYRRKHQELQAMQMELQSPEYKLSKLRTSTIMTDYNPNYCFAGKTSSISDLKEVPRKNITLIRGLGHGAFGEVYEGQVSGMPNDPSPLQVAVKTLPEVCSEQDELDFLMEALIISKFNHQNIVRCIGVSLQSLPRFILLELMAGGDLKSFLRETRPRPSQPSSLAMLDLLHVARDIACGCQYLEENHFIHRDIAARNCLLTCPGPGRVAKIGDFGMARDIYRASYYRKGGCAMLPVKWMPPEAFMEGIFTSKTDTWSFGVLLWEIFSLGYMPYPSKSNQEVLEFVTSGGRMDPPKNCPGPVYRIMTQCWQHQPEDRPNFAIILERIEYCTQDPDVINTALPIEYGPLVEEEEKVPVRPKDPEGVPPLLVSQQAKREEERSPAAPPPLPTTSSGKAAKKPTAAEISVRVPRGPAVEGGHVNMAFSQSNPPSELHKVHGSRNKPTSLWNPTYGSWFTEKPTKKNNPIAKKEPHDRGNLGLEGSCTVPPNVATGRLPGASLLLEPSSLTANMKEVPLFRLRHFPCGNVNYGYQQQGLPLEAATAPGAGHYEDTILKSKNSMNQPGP

[15] = target: AKT1 (human) (UniProt P31749)
[16] = target: KDR (human) (UniProt P35968)
[17] = target: AURKC (human) (UniProt Q9UQB9)
[18] = target: ACVR2A (human) (UniProt P27037)
[19] = target: NTRK2 (human) (UniProt Q16620)
[20] = target: MLTK (human) (UniProt Q9NYL2)
[21] = target: RIPK4 (human) (UniProt P57078)
[22] = target: GSK3A (human) (UniProt P49840)
[23] = target: EPHA5 (human) (UniProt P54756)
[24] = target: FGFR2 (human) (UniProt P21802)
[25] = target: RIOK2 (human) (UniProt Q9BVS4)
[26] = target: CDC42BPG (human) (UniProt Q6DT37)
[27] = test system: KIT (human), P10721 [V559D]
KIT (human), P10721 [V559D], sequence (P10721 whole entry V559D, looked up): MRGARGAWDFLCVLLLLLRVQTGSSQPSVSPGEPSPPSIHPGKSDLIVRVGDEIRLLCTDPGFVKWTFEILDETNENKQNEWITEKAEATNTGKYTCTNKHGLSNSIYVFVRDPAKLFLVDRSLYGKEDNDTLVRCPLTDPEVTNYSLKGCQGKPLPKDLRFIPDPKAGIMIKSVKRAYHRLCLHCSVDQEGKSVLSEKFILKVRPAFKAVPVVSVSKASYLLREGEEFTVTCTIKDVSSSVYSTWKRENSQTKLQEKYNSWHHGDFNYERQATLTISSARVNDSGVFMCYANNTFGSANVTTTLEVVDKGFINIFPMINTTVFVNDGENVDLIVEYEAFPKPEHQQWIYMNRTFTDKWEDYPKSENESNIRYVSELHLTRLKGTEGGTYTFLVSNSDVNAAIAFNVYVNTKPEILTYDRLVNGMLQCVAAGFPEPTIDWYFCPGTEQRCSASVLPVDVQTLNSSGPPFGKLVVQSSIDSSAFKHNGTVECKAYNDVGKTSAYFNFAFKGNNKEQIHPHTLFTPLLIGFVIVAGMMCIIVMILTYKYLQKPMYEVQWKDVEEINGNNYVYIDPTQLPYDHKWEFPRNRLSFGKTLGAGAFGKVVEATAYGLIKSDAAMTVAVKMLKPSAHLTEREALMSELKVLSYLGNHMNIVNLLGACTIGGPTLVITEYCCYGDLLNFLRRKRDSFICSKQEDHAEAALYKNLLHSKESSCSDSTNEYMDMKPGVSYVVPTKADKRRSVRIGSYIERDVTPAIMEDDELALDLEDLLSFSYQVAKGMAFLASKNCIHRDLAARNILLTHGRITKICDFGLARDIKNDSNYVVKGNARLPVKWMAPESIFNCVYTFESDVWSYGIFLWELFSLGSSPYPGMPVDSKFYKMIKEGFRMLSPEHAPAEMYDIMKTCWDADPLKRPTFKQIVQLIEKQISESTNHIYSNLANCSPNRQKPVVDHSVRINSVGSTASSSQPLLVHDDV

[28] = target: RPS6KA6 KD1 (human) (UniProt Q9UK32)
[29] = target: MARK3 (human) (UniProt P27448)
[30] = target: WEE2 (human) (UniProt P0C1S8)
WEE2 (human), sequence (P0C1S8 whole entry, looked up): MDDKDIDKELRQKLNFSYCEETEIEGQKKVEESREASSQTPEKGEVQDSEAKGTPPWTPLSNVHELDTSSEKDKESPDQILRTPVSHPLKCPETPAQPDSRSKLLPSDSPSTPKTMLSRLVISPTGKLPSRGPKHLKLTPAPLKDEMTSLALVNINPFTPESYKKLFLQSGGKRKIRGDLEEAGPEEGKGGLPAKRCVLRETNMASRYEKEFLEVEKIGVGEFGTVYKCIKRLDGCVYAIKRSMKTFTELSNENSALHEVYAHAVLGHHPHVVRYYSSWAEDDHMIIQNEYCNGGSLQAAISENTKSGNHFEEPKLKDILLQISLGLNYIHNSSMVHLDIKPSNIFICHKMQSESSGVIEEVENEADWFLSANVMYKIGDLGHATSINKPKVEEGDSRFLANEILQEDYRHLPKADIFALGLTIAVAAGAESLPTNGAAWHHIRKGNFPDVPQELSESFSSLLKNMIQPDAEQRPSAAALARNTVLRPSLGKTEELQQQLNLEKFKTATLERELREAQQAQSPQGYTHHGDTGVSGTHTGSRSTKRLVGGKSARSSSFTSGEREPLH

[31] = target: MKNK2 (human) (UniProt Q9HBH9)
[32] = target: NTRK1 (human) (UniProt P04629)
[33] = target: PIM3 (human) (UniProt Q86V86)
[34] = target: PTK6 (human) (UniProt Q13882)
[35] = target: CAMK1G (human) (UniProt Q96NX5)
[36] = target: NEK9 (human) (UniProt Q8TD19)
[37] = target: ACVR1 (human) (UniProt Q04771)
[38] = target: EPHB1 (human) (UniProt P54762)
[39] = target: MAPK9 (human) (UniProt P45984)
[40] = target: NEK6 (human) (UniProt Q9HC98)

DYRK1B (human), sequence (Q9Y463 whole entry, looked up): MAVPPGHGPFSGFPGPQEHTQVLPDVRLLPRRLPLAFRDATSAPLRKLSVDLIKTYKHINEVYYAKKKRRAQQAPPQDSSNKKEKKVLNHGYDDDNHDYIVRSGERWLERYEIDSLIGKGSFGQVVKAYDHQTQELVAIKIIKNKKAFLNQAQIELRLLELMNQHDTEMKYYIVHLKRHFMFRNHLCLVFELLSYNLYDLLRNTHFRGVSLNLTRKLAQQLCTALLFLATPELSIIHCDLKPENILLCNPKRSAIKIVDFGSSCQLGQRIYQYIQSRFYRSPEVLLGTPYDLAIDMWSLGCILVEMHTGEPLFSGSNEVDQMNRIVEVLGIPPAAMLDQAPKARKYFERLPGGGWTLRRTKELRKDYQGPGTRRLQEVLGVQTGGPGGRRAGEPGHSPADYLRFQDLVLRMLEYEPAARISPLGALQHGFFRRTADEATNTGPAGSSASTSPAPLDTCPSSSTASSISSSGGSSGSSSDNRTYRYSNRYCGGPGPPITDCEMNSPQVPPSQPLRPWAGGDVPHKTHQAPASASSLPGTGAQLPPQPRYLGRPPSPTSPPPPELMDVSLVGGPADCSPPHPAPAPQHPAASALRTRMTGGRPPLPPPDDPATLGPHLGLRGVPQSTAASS

kinase still bound, per cent of control [1] [%]	kinase still bound, per cent of control [2] [%]	kinase still bound, per cent of control [3] [%]	kinase still bound, per cent of control [4] [%]	kinase still bound, per cent of control [5] [%]	kinase still bound, per cent of control [6] [%]	kinase still bound, per cent of control [7] [%]	kinase still bound, per cent of control [8] [%]	kinase still bound, per cent of control [9] [%]	kinase still bound, per cent of control [10] [%]	kinase still bound, per cent of control [11] [%]	kinase still bound, per cent of control [12] [%]	kinase still bound, per cent of control [13] [%]	kinase still bound, per cent of control [14] [%]	kinase still bound, per cent of control [15] [%]	kinase still bound, per cent of control [16] [%]	kinase still bound, per cent of control [17] [%]	kinase still bound, per cent of control [18] [%]	kinase still bound, per cent of control [19] [%]	kinase still bound, per cent of control [20] [%]	Structure (SMILES)	also measured
100	100	100	100	100	100	100	100	100	100	100	32	100	6.2	100	100	100	100	100	100	COc1cc(C(=O)NC2CCN(C)CC2)ccc1Nc1ncc2c(n1)N(C1CCCC1)C(C)CC(=O)N2C (stereo not given)	kinase still bound, per cent of control [21]: 100%; kinase still bound, per cent of control [22]: 100%; kinase still bound, per cent of control [23]: 100%; kinase still bound, per cent of control [24]: 100%; kinase still bound, per cent of control [25]: 100%; kinase still bound, per cent of control [26]: 100%; kinase still bound, per cent of control [27]: 100%; kinase still bound, per cent of control [28]: 100%; kinase still bound, per cent of control [29]: 100%; kinase still bound, per cent of control [30]: 100%; kinase still bound, per cent of control [31]: 100%; kinase still bound, per cent of control [32]: 100%; kinase still bound, per cent of control [33]: 100%; kinase still bound, per cent of control [34]: 100%; kinase still bound, per cent of control [35]: 100%; kinase still bound, per cent of control [36]: 100%; kinase still bound, per cent of control [37]: 100%; kinase still bound, per cent of control [38]: 100%; kinase still bound, per cent of control [39]: 100%; kinase still bound, per cent of control [40]: 100%
100	100	100	100	100	100	100	100	100	100	100	100	100	100	100	100	100	100	32	6.9	Cc1ccc(C(=O)Nc2cccc(C(F)(F)F)c2)cc1Nc1cncc(C(N)=O)c1	kinase still bound, per cent of control [21]: 100%; kinase still bound, per cent of control [22]: 100%; kinase still bound, per cent of control [23]: 1.1%; kinase still bound, per cent of control [24]: 100%; kinase still bound, per cent of control [25]: 100%; kinase still bound, per cent of control [26]: 100%; kinase still bound, per cent of control [27]: 0%; kinase still bound, per cent of control [28]: 100%; kinase still bound, per cent of control [29]: 100%; kinase still bound, per cent of control [30]: 100%; kinase still bound, per cent of control [31]: 100%; kinase still bound, per cent of control [32]: 100%; kinase still bound, per cent of control [33]: 100%; kinase still bound, per cent of control [34]: 100%; kinase still bound, per cent of control [35]: 100%; kinase still bound, per cent of control [36]: 100%; kinase still bound, per cent of control [37]: 100%; kinase still bound, per cent of control [38]: 1.8%; kinase still bound, per cent of control [39]: 100%; kinase still bound, per cent of control [40]: 100%

Structure (SMILES)	kinase still bound, per cent of control [1] [%]	kinase still bound, per cent of control [2] [%]	kinase still bound, per cent of control [3] [%]	kinase still bound, per cent of control [4] [%]	kinase still bound, per cent of control [5] [%]	kinase still bound, per cent of control [6] [%]	kinase still bound, per cent of control [7] [%]	kinase still bound, per cent of control [8] [%]	kinase still bound, per cent of control [9] [%]	kinase still bound, per cent of control [10] [%]	kinase still bound, per cent of control [11] [%]	kinase still bound, per cent of control [12] [%]	kinase still bound, per cent of control [13] [%]	kinase still bound, per cent of control [14] [%]	kinase still bound, per cent of control [15] [%]	kinase still bound, per cent of control [16] [%]	kinase still bound, per cent of control [17] [%]	kinase still bound, per cent of control [18] [%]	kinase still bound, per cent of control [19] [%]	kinase still bound, per cent of control [20] [%]	also measured
CCN1CCN(Cc2ccc(Nc3ncc4c(n3)N(C)c3ccccc3C(=O)N4C)cc2C(F)(F)F)CC1	49	0.2	100	68	68	6.6	100	71	34	81	100	100	57	64	100	100	8.7	56	60	65	kinase still bound, per cent of control [21]: 12%; kinase still bound, per cent of control [22]: 100%; kinase still bound, per cent of control [23]: 100%; kinase still bound, per cent of control [24]: 50%; kinase still bound, per cent of control [25]: 100%; kinase still bound, per cent of control [26]: 92%; kinase still bound, per cent of control [27]: 56%; kinase still bound, per cent of control [28]: 19%; kinase still bound, per cent of control [29]: 11%; kinase still bound, per cent of control [30]: 64%; kinase still bound, per cent of control [31]: 0.2%; kinase still bound, per cent of control [32]: 34%; kinase still bound, per cent of control [33]: 84%; kinase still bound, per cent of control [34]: 29%; kinase still bound, per cent of control [35]: 61%; kinase still bound, per cent of control [36]: 72%; kinase still bound, per cent of control [37]: 52%; kinase still bound, per cent of control [38]: 100%; kinase still bound, per cent of control [39]: 57%; kinase still bound, per cent of control [40]: 64%
